According to patent US6087355A, “Cephalosporin antibiotics” (Microcide Pharmaceuticals, Inc., priority 1996, dated 2000):
Where a name gives a salt, the structure may show the parent alone.

Legend:
[1] = system: S. aureus Col8A(Meth^S)(lac^-); assay: In vitro MIC, agar dilution; type: cell-based; details: in words
How it was run: (§1)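 Two-fold dilutions (128 to ≤0.25 μg/mL, in duplicate) were poured into Mueller-Hinton agar. Log-phase broth cultures were spot-inoculated at about 10^4 cfu per spot and incubated 35-36°C for 16-20 hours; the MIC was the lowest concentration inhibiting growth. Col is a high-level PBP2a producer; Col 8A is its isogenic PBP2a-lacking partner.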

[2] = system: E. faecalis VanB(Van^R); assay: In vitro MIC, agar dilution; type: cell-based; details: Enterococcus faecalis, read-out: minimum inhibitory concentration (MIC)
How it was run: (§2)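 Spots of about 10^4 cfu of log-phase culture were applied, and plates were incubated 16-20 h at 35-36 °C. MIC was the lowest concentration inhibiting growth.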

[3] = system: P. aeruginosa ATCC 27853; assay: In vitro MIC, agar dilution; type: cell-based; details: Pseudomonas aeruginosa, ATCC27853, read-out: minimum inhibitory concentration (MIC)
How it was run: as §2

[4] = system: S. aureus 76(Meth^R)(lac^+); assay: In vitro MIC, agar dilution; type: cell-based; details: Staphylococcus aureus, read-out: minimum inhibitory concentration (MIC)
How it was run: as §2

[5] = system: E. faecium A491(Amp^R); assay: In vitro MIC, agar dilution; type: cell-based; details: Enterococcus faecium, read-out: minimum inhibitory concentration (MIC)
How it was run: as §2

[6] = system: S. aureus PC1(Meth^S)(lac^+); assay: In vitro MIC, agar dilution; type: cell-based; details: Staphylococcus aureus, read-out: minimum inhibitory concentration (MIC)
How it was run: as §2

[7] = system: S. aureus Spain #356(Meth^R); assay: In vitro MIC, agar dilution; type: cell-based; details: Staphylococcus aureus, read-out: minimum inhibitory concentration (MIC)
How it was run: as §2

[8] = system: E. faecalis ATCC 29212; assay: In vitro MIC, agar dilution; type: cell-based; details: Enterococcus faecalis, ATCC29212, read-out: minimum inhibitory concentration (MIC)
How it was run: as §2

[9] = system: S. haemolyticus 05(Meth^R); assay: In vitro MIC, agar dilution; type: cell-based; details: Staphylococcus haemolyticus, read-out: minimum inhibitory concentration (MIC)
How it was run: as §2

[10] = system: E. coli ATCC 25992; assay: In vitro MIC, agar dilution; type: cell-based; details: Escherichia coli, ATCC25992, read-out: minimum inhibitory concentration (MIC)
How it was run: as §2

[11] = system: E. faecium ATCC 35667; assay: In vitro MIC, agar dilution; type: cell-based; details: Enterococcus faecium, ATCC35667, read-out: minimum inhibitory concentration (MIC)
How it was run: as §2

[12] = system: S. aureus ATCC 29213; assay: In vitro MIC, agar dilution; type: cell-based; details: Staphylococcus aureus, ATCC29213, read-out: minimum inhibitory concentration (MIC)
How it was run: as §2

[13] = system: E. faecium VanA(Van^R); assay: In vitro MIC, agar dilution; type: cell-based; details: Enterococcus faecium, read-out: minimum inhibitory concentration (MIC)
How it was run: as §2

[14] = system: S. aureus ATCC 33593(Meth^R); assay: In vitro MIC, agar dilution; type: cell-based; details: Staphylococcus aureus, ATCC33593, read-out: minimum inhibitory concentration (MIC)
How it was run: as §2

[15] = system: S. aureus ATCC 13709(Meth^S); assay: In vitro MIC, agar dilution; type: cell-based; details: Staphylococcus aureus, ATCC13709, S. aureus ATCC 13709(Meth^S); read-out: minimum inhibitory concentration (MIC)
How it was run: as §2

[16] = system: S. aureus strain ATCC 13709 (methicillin-susceptible); assay: Murine model for lethal bacteremic peritonitis; type: in vivo, female Swiss-Webster mice; details: Staphylococcus aureus, ATCC13709, SC, 72 h; for responders at 0.3125 mg/kg / responders at 0.625 mg/kg / responders at 2.5 mg/kg / responders at 5 mg/kg: read-out: Survivors; for responders at 1.25 mg/kg: read-out: Survivors (converted); for ED50: two equal doses, IP challenge, read-out: ED50
Experimental: Groups of 5 female Swiss-Webster mice (Simonsen, Gilroy, Calif.) each are challenged by the intraperitoneal (IP) route with tenfold increments of a bacterial inoculum. This permits calculation of the mean lethal dose (LD50) and the LD100. For preliminary evaluation of a new antibiotic, mice are challenged IP with an LD100 titer of bacteria. In two equal doses administered at the time of bacterial challenge and 2 hours later, groups of 10 mice each are treated subcutaneously with two-fold increments of the test drug and an antibiotic of known efficacy in mice and humans (i.e., positive control). Mice are observed for 72 h. Those alive at 72 h are considered long term survivors. The total drug dose in mg/kg that protects 50% of mice in a group from death is termed the mean protective dose (PD50). PD50 s are similarly determined for several pathogens. The quantitative endpoints for the new drug are then compared with those obtained with reference antibiotics.
Six ten-fold dilutions of inoculum suspended in 0.5 mL of sterilized 7% hog gastric mucin (Sigma) are injected IP in groups of 5 mice each. A control group of 5 mice receive mucin alone. Mice are observed for 72 h. Those alive at 72 h are considered long term survivors. The mean lethal dose (LD50) and 100% lethal dose (LD100) are determined by the probit test.
For antibiotic efficacy studies, mice are challenged IP with bacterial titers that will afford an LD100 for the test strain. In two equal doses administered at the time of bacterial challenge and 2 hours later, groups of 10 mice each are treated by the subcutaneous route (SC) with twofold increments of the test antibiotic; another group is treated similarly with a reference antibiotic of known efficacy in animals and man. Drug doses can range from 0.01 to 512 mg/kg. If the drug is poorly soluble, Tween 20 or propylene glycol will be employed to solubilize the drug. Animals are observed for 72 h. The 50% protective dose (PD50) is calculated in mg/kg by the probit method. The PD50 is the same as the 50% effective dose (ED50) and the 50% curative dose (CD50). Samples of blood from the hearts of all animals that die and from half the mice that survive are cultured on brain-heart infusion agar. Animals that received a protective dosage of the test drug will be alive at 72 h, although they may appear moderately ill to very ill during the observation period. […] Most of these mice will die within 6 to 48 h. Those alive at 72 h will be considered long term survivors.
(Compound numbers correspond to those in MIC tables; data reported for challenge with methicillin-susceptible S. aureus strain ATCC 13709.)

[17] = system: S. aureus Col(Meth^R)(lac^-); assay: In vitro MIC, agar dilution; type: cell-based; details: Staphylococcus aureus, read-out: minimum inhibitory concentration (MIC)
How it was run: as §1

How did the “responsiveness of S. aureus Col 8A strain” value [1] turn out when CO/N=C(\C(=O)N[C@@H]1C(=O)N2C(C(=O)O)=C(COC(C)=O)CS[C@H]12)c1csc(N)n1 [Cefotaxime, cefotaxime, reference compound] was run?
Its value is “highly responsive”.

What does the source list for NCC(=O)NCCSCc1cnccc1SC1=C(C(=O)O)N2C(=O)[C@@H](NC(=O)/C(=N\O)c3nc(N)sc3Cl)[C@H]2SC1 [Cmpd 29, (7R)-7-[(Z)-2-(2-amino-5-chlorothiazol-4-yl)-2-(hydroxyimino)acetamido]-3-[3-(glycyl)aminoethylthiomethylpyrid-4-ylthio]-3-cephem-4-carboxylate, trifluoroacetic acid salt]?
MIC [2]: ≤ 0.06 µg/mL; MIC [3]: > 32 µg/mL; MIC [4]: 1 µg/mL; MIC [5]: 4 µg/mL; MIC [6]: 0.25 µg/mL; MIC [7]: 2 µg/mL; MIC [8]: ≤ 0.06 µg/mL; MIC [9]: 2 µg/mL; MIC [10]: 8 µg/mL; MIC [11]: 0.25 µg/mL; MIC [12]: 0.25 µg/mL; MIC [13]: 0.5 µg/mL; MIC [14]: 2 µg/mL; MIC [15]: 0.13 µg/mL; responders at 0.3125 mg/kg [16]: 20%; responders at 0.625 mg/kg [16]: 50%; responders at 1.25 mg/kg [16]: 90%; responders at 2.5 mg/kg [16]: 90%; responders at 5 mg/kg [16]: 70%; ED50 [16]: 1.26 mg/kg; MIC [17]: 1 µg/mL

For NCCSCc1cnccc1SC1=C(C(=O)O)N2C(=O)[C@@H](NC(=O)/C(=N\OCCF)c3nc(N)sc3Cl)[C@H]2SC1.O=C(O)C(F)(F)F [Cmpd 33, (7R)-7-[(Z)-2-(2-amino-5-chlorothiazol-4-yl)-2-(2-fluoroethoxyimino)acetamido]-3-(3-aminoethylthiomethylpyrid-4-ylthio)-3-cephem-4-carboxylate, trifluoroacetic acid salt], which MIC [2] is on record?
The MIC was 0.13 µg/mL.

What about the MIC [3] of the same molecule?
The MIC was 32 µg/mL.

What about the MIC [4] of the same molecule?
The MIC was 1 µg/mL.

What about the MIC [5] of the same molecule?
The MIC was 8 µg/mL.

And the MIC [6]?
The MIC was 0.25 µg/mL.

What about the MIC [7] of the same molecule?
The MIC was 1 µg/mL.

And the MIC [8]?
Its MIC is 0.13 µg/mL.

And the MIC [9]?
The MIC was 2 µg/mL.

And the MIC [10]?
The MIC was 1 µg/mL.

What about the MIC [11] of the same molecule?
The MIC was 0.5 µg/mL.

What about the MIC [12] of the same molecule?
The MIC was 0.25 µg/mL.

What about the MIC [13] of the same molecule?
Its MIC is 2 µg/mL.

What about the MIC [14] of the same molecule?
Its MIC is 2 µg/mL.

And the MIC [15]?
Its MIC is 0.13 µg/mL.

What about the responders at 0.3125 mg/kg [16] of the same molecule?
Its responders at 0.3125 mg/kg is 0%.

What about the responders at 0.625 mg/kg [16] of the same molecule?
Its responders at 0.625 mg/kg is 40%.

What about the responders at 1.25 mg/kg [16] of the same molecule?
Its responders at 1.25 mg/kg is 50%.

And the responders at 2.5 mg/kg [16]?
Its responders at 2.5 mg/kg is 90%.

And the responders at 5 mg/kg [16]?
The responders at 5 mg/kg was 80%.

And the ED50 [16]?
The ED50 was 1.19 mg/kg.

And the MIC [17]?
Its MIC is 1 µg/mL.
